“Also recorded” adds a separate entry of the source. Residues, ends and D or L forms follow the SMILES beside them. *: point of attachment. Cbz = O=C(OCc1ccccc1)*
Key:
Type in all cases: cell-based
[1] = test system: MV-4-11 cells; assay: CellTiter-Glo cell viability, MV-4-11 cells; conditions: for Loss of cellular viability / toxicity, cotreated with cereblon ligands 8046, 8047 and 8066 vs monomers alone: MV-4-11, 72 hours, 1:1, 10 nM-100 μM each
Protocol: CellTiter-Glo® 2.0 Cell Viability Assay (Promega) was carried out following the manufacturer's recommendations. Cells were seeded at a density of 1000 cells/well in a white 96 well plates (Corning, #3917) in a total volume of 100 μl with respective monomers, combinations of BRD ligands together with E3 ligase ligands or vehicle control treatment. After a 72 h incubation, 100 ul of the CellTiter-Glo® substrate was added per well and luminescence was read on a Spectramax M5 (Molecular Devices). Dose-response curves were generated using Graphpad Prism software.
MV-4-11 cells (5×104) were treated for 24 hours with the sample compounds solubilized in DMSO. The compounds were added at 1 nM-100 μM each. Cellular viability was determined using the CellTiter-Glo® Luminescent Cell Viability Assay (Promega) described above. FIGS. 19-22 depict the CURE-PRO-mediated loss of cellular viability for BRD monomers (JQ1 derivatives comprising of catechol linkers), and CRBN ligand, 8049 (pomalidomide derivatives comprising boronic acid linkers) combined in a 1:1 ratio.
MV-4-11 cells (1×104) were treated for 72 hours with the compounds solubilized in DMSO. Compounds were added at 10 nM-100 μM each. Cellular viability was determined using the CellTiter-Glo® Luminescent Cell Viability Assay (Promega) described above. FIGS. 47-54 depict the CURE-PRO-mediated loss of cellular viability for BRD monomers (JQ1 derivatives comprising of boronic acid linkers), and CRBN ligands, 8046, 8047 and 8066 (pomalidomide derivatives comprising diol linkers) combined in a 1:1 ratio.

[2] = biological target: T1, BRD4 (Homo sapiens, UniProt O60885); assay: Summary of BRD4 degradation by CURE-PRO pairs, estimated from Western Blot or WES (Proteinsimple); parameters: endogenous in cells
Text: A black check mark indicates efficacy of 30% to 70% or higher protein degradation.

[3] = biological target: T1, BRD4; assay: CURE-PRO-mediated BRD4 degradation, Western blot, HeLa cells; parameters: endogenous in cells; host or cells: HeLa; conditions: 24 h, Western blot
Procedure, shortened: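 HeLa cells treated 24 h with compounds in DMSO (1-10 μM, 10 μM or 100 μM each; paired monomers combined 1:1), optional 15-min pretreatment with pomalidomide, VHL298, Nutlin3a (10 μM) or MG-132/carfilzomib (1 μM). RIPA lysates, 10-20 μg protein immunoblotted for BRD4 with β-actin, ECL detection.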

[4] = biological target: T1, BRD4; assay: CURE-PRO-mediated BRD4 degradation with MDM2 ligands, WES (ProteinSimple), HCT116 cells; parameters: endogenous in cells; conditions: HCT116, monomers 10 μM each, inhibitor 1 μM pre-incubation
Protocol: (§1) All cell lines were purchased from ATCC or DSMZ and grown at 37° C. with 5% CO2. Human HeLa cells were cultured in complete growth medium (Dulbecco's modified Eagle's medium (DMEM) supplemented with 10% FBS); MCF7 cells were cultured in complete growth medium (Dulbecco's modified Eagle's medium (DMEM) supplemented with 10% FBS and 0.01 mg/ml human recombinant insulin (Sigma Aldrich); Namalwa and MOLM-13 cells were cultured in complete growth medium (RPMI 1640 medium supplemented with 10% FBS); MV-4-11 were cultured in complete growth medium (Iscove's Modified Dulbecco's medium, supplemented with 10% FBS); HCT116 cells were cultured in complete growth medium (McCoy's 5a Medium supplemented with 10% FBS). For cellular degradation of BRD4 studies, cells were seeded in a 12-well plate at 70-80% confluency, allowed to attach overnight, and incubated with the indicated compounds for the indicated time. When indicated, a 15-minute pretreatment with 10 μM pomalidomide, 10 μM VHL298, 10 μM Nutlin3a, 1 μM MG-132 or 1 μM Carfilzomib was performed before the addition of CURE-PROs. For washout studies, after CURE-PRO treatment, media was aspirated and incubated with complete medium for the indicated time before lysis.
(§2) WES Simple analysis was performed on WES system (ProteinSimple-Biotechne) according to the manufacturer's instructions. Total protein concentrations of cell lysates were determined by the Pierce BCA kit (Thermo Fisher). 3 μL of 0.3 μg/μL of the protein lysate was loaded onto a 12- to 230-kDa WES assay plate (ProteinSimple) where 300 nL sample was withdrawn through a capillary, subjected to electrophoretic separation of proteins by size, and followed by the simultaneous, HRP-based detection of proteins using the Anti-Rabbit Detection Module (Proteinsimple: #DM-001). The electropherograms were checked then the automatic peak detection was manually corrected if it was required.
(§3) HCT116 cells (3×10^6) were treated for 24 hours with the compounds solubilized in DMSO. Compounds were added at 1 μM-10 μM each. Standardized protein samples were electrophoresed and imaged as described in the WES ProteinSimple section above. FIGS. 59, 60, and 61 depict the concentration-dependence of CURE-PRO-mediated BRD4 degradation using MDM2 ligands.
as §3, with “62” for “59, 60,”, “63” for “61”
(§4) HCT116 cells (3×10^6) were treated for 24 hours with the compounds solubilized in DMSO. CURE-PRO monomers were added at 10 μM each and the proteasomal inhibitors at 1 μM. Standardized protein samples were electrophoresed and imaged as described in the WES ProteinSimple section above. FIG. 68 depicts the dependence of the proteasome for CURE-PRO-mediated BRD4 degradation.

[5] = biological target: T1, BRD4; assay: CURE-PRO-mediated BRD4 degradation with VHL ligands, WES (ProteinSimple), MCF7 cells; parameters: endogenous in cells; conditions: for Inhibition of BRD-E2 + 8305 mediated BRD4 degradation by proteasome inhibitor / Inhibition of BRD-E20 + 8305 mediated BRD4 degradation by proteasome inhibitor: MCF7, monomers 10 μM each, inhibitor 1 μM pre-incubation
Protocol: as §1, §2
MCF7 cells (3×10^6) were treated for 4-24 hours continually (FIG. 72), or treated for 4h, washed and incubated for a further 4-24 h with the compounds solubilized in DMSO. Compounds were added at 10 μM each. Cells were washed, lysed, and clarified by centrifugation. The total protein concentration was quantified by the BCA method (ThermoFisher Sciences). Standardized protein samples were electrophoresed and imaged as described in the WES Proteinsimple section above. FIG. 69 depicts the CURE-PRO-mediated BRD4 degradation for the BRD-E50 monomer, and VHL ligand, 8305.
as §4, with “MCF7” for “HCT116”, “Proteinsimple” for “ProteinSimple”, “FIGS. 73 and 75” for “FIG. 68”
MCF7 cells (3×10^6) were treated for 24 hours with the compounds solubilized in DMSO. CURE-PRO monomers were added at 10 μM. FIG. 74 depicts the CURE-PRO-mediated BRD4 degradation for the BRD-E50 monomer, and VHL ligand, 8305 combined in a 1:1 ratio after 24 h.

**Q.** With COc1ccc2c(c1)C(c1ccc(Cl)cc1)=N[C@@H](CC(=O)NCCNC(=O)/C=C/c1ccc(B(O)O)cc1)c1nnc(C)n1-2 [BRD-E29, (4-((E)-3-((2-(2-((4S)-6-(4-chlorophenyl)-8-methoxy-1-methyl-4H-benzo[f][1,2,4]triazolo[4,3-a][1,4]diazepin-4-yl)acetamido)ethyl)amino)-3-oxoprop-1-en-1-yl)phenyl)boronic acid] as the compound, how does the “Loss of cellular viability / toxicity, cotreated with cereblon ligands 8046, 8047 and 8066 vs monomers alone” value [1] read?
**A.** reduced viability; also recorded: increased toxicity

**Q.** What about the “Degradation of BRD4 in combination with CRBN ligand [drawing 371]” value ([2]; Table 1, CRBN ligand, second drawing (8047)) of the same compound?
**A.** ✓ (A black check mark indicates efficacy of 30% to 70% or higher protein degradation)

**Q.** What about the “Degradation of BRD4 in combination with CRBN ligand [drawing 372]” value ([2]; Table 1, CRBN ligand, third drawing (8066)) of the same compound?
**A.** ✓ (A black check mark indicates efficacy of 30% to 70% or higher protein degradation)

**Q.** And the “Degradation of BRD4 in combination with CRBN ligand [drawing 370]” value ([2]; Table 1, aromatic 1,2-diol- or hindered cis-1,2-diol-containing CRBN ligand, first drawing (8046))?
**A.** ✓ (A black check mark indicates efficacy of 30% to 70% or higher protein degradation)

**Q.** What about the “BRD4 degradation, co-treatment with CRBN ligand 8046” value ([3]; 1:1 with 8046, 10 μM each) of the same compound?
**A.** causes degradation of BRD4; also recorded: Degradation is noted

**Q.** And the “BRD4 degradation, co-treatment with CRBN ligand 8047” value ([3]; 1:1 with 8047, 10 μM each)?
**A.** causes degradation of BRD4; also recorded: Degradation is noted

**Q.** What about the “BRD4 degradation, co-treatment with CRBN ligand 8066” value ([3]; 1:1 with 8066, 10 μM each (BRD-E10: 10 and 100 μM)) of the same compound?
**A.** causes degradation of BRD4; also recorded: Degradation is noted

**Q.** For COc1ccc2c(c1)C(c1ccc(Cl)cc1)=N[C@@H](CC(=O)Nc1cccc(B(O)O)c1)c1nnc(C)n1-2 [BRD-E73, (3-(2-((4S)-6-(4-chlorophenyl)-8-methoxy-1-methyl-4H-benzo[f][1,2,4]triazolo[4,3-a][1,4]diazepin-4-yl)acetamido)phenyl)boronic acid], which “Loss of cellular viability / toxicity, cotreated with cereblon ligands 8046, 8047 and 8066 vs monomers alone” value [1] is on record?
**A.** reduced viability; also recorded: increased toxicity

**Q.** For CCNC(=O)C[C@@H]1N=C(c2ccc(Cl)cc2)c2cc(Sc3ccc(B(O)O)cc3)ccc2-n2c(C)nnc21 [BRD-E75, (4-(((4S)-6-(4-chlorophenyl)-4-(2-(ethylamino)-2-oxoethyl)-1-methyl-4H-benzo[f][1,2,4]triazolo[4,3-a][1,4]diazepin-8-yl)thio)phenyl)boronic acid], which “Loss of cellular viability / toxicity, cotreated with cereblon ligands 8046, 8047 and 8066 vs monomers alone” value [1] is on record?
**A.** reduced viability; also recorded: increased toxicity

**Q.** Which results are given for CCNC(=O)C[C@@H]1N=C(c2ccc(Cl)cc2)c2cc(OCCCCCCCNC(=O)c3ccc(B(O)O)cc3)ccc2-n2c(C)nnc21 [BRD-E78]?
**A.** Loss of cellular viability / toxicity, cotreated with cereblon ligands 8046, 8047 and 8066 vs monomers alone [1]: reduced viability; also recorded: increased toxicity; Degradation of BRD4 in combination with VHL ligand [drawing 397] ([2]; Table 3, aromatic 1,2-diol-containing VHL ligand, second drawing (8305)): ✓ (A black check mark indicates efficacy of 30% to 70% or higher protein degradation)

**Q.** How did the “Loss of cellular viability / toxicity, co-dosed with CRBN ligand 8049” value ([1]; MV-4-11, 24 hours, 1:1 with 8049, 1 nM-100 μM each) turn out when COc1ccc2c(c1)C(c1ccc(Cl)cc1)=N[C@@H](CC(=O)NCCCCCNC(=O)c1cccc(O)c1O)c1nnc(C)n1-2 [BRD-N8, N-(5-(2-((4S)-6-(4-chlorophenyl)-8-methoxy-1-methyl-4H-benzo[f][1,2,4]triazolo[4,3-a][1,4]diazepin-4-yl)acetamido)pentyl)-2,3-dihydroxybenzamide] was run?
**A.** concentration-dependent loss in cellular viability; also recorded: increased toxicity

**Q.** CC(C)C[C@H](NC(=O)[C@H](CCc1ccccc1)NC(=O)CN1CCOCC1)C(=O)N[C@@H](Cc1ccccc1)C(=O)N[C@@H](CC(C)C)C(=O)[C@@]1(C)CO1 [Carfilzomib] was tested. Which “Inhibition of BRD-N25 + 8310 mediated BRD4 degradation by proteasome inhibitor” value [4] did it give?
**A.** inhibited by the pre-incubation

**Q.** And the “Inhibition of BRD-E2 + 8305 mediated BRD4 degradation by proteasome inhibitor” value [5]?
**A.** inhibited by the pre-incubation

**Q.** And the “Inhibition of BRD-E20 + 8305 mediated BRD4 degradation by proteasome inhibitor” value [5]?
**A.** inhibited by the pre-incubation

**Q.** For CC(C)C[C@@H](C=O)NC(=O)[C@H](CC(C)C)NC(=O)[C@H](CC(C)C)NC(=O)OCc1ccccc1 [MG-132] (Cbz-Leu-Leu-Leu-aldehyde), which “Inhibition of BRD-N25 + 8310 mediated BRD4 degradation by proteasome inhibitor” value [4] is on record?
**A.** inhibited by the pre-incubation

**Q.** What about the “Inhibition of BRD-E2 + 8305 mediated BRD4 degradation by proteasome inhibitor” value [5] of the same compound?
**A.** inhibited by the pre-incubation

**Q.** What about the “Inhibition of BRD-E20 + 8305 mediated BRD4 degradation by proteasome inhibitor” value [5] of the same compound?
**A.** inhibited by the pre-incubation

**Q.** Cc1ncsc1-c1ccc(CNC(=O)[C@@H]2C[C@@H](O)CN2C(=O)[C@@H](NC(=O)C2(C#N)CC2)C(C)(C)C)cc1 [VHL298] was tested. Which “Inhibition of BRD-E50 + 8305 mediated BRD4 degradation by preincubation” value ([5]; MCF7, equimolar final concentrations (10 μM)) did it give?
**A.** attenuates CURE-PRO mediated BRD4 degradation; also recorded: inhibited CURE-PRO mediated degradation; also recorded: inhibits the degradation of BRD4

**Q.** Which “Loss of cellular viability, monomer alone” value ([1]; MV-4-11, 24 hours, 1 nM-100 μM) does the source give for O=C1CCC(N2C(=O)c3cccc(CNC(=O)c4cccc(B(O)O)c4)c3C2=O)C(=O)N1 (stereo not drawn) [compound 8049] here?
**A.** little loss of viability was observed

**Q.** How did the “BRD4 degradation, monomer alone (WES)” value ([5]; MCF7, 10 μM) turn out when Cc1ncsc1-c1ccc(CNC(=O)[C@@H]2C[C@@H](O)CN2C(=O)[C@@H](NC(=O)c2cccc(O)c2O)C(C)(C)C)cc1 [compound 8305, (2S,4R)-1-((S)-2-(2,3-dihydroxybenzamido)-3,3-dimethylbutanoyl)-4-hydroxy-N-(4-(4-methylthiazol-5-yl)benzyl)pyrrolidine-2-carboxamide] was run?
**A.** no degradation of BRD4
